Test results: PubChem BioAssay AID1745844 (Carcinogenic Potency Database (CPDB), 2022)
Active and inactive are the calls of the source. No rule for the calls is given here.

System: rodent lifetime carcinogenesis bioassay, tumor incidence TD50
Assay: chronic cancer bioassays in animals – CPDB, compiled studies (AID 1745844)

COc1cc(-c2ccc(N)c(OC)c2)ccc1N
carcinogen call (mouse, strain BALB/cStCrlfC3Hf/Nctr, females, in drinking water, site: Harderian gland, lesion: adenoma, dosed 78 weeks, study length 78 weeks): negative (inactive) | carcinogen call (mouse, strain BALB/cStCrlfC3Hf/Nctr, females, in drinking water, site: Harderian gland, lesion: adenoma, dosed 112 weeks, study length 112 weeks): negative (inactive) | carcinogen call (mouse, strain BALB/cStCrlfC3Hf/Nctr, females, in drinking water, site: Harderian gland, lesion: carcinoma, dosed 78 weeks, study length 78 weeks): negative (inactive) | TD50 (mouse, strain BALB/cStCrlfC3Hf/Nctr, males, in drinking water, site: Harderian gland, lesion: adenoma, dosed 78 weeks, study length 78 weeks): 3560 mg/kg/day (inactive) | carcinogen call (mouse, strain BALB/cStCrlfC3Hf/Nctr, males, in drinking water, site: Harderian gland, lesion: adenoma, dosed 112 weeks, study length 112 weeks): negative (inactive) | TD50 (mouse, strain ICR/Jcl, males, in feed, site: liver, lesion: hepatoma, dosed 65 weeks, study length 65 weeks): 73.8 mg/kg/day | TD50 (rat, strain Fischer 344, females, in drinking water, site: Zymbal's gland, lesion: adenoma + carcinoma + carcinoma, bilateral, dosed 91 weeks, study length 93 weeks): 6.74 mg/kg/day | TD50 (rat, strain Fischer 344, females, in drinking water, site: Zymbal's gland, lesion: adenoma, dosed 91 weeks, study length 93 weeks): 27.5 mg/kg/day | TD50 (rat, strain Fischer 344, females, in drinking water, site: Zymbal's gland, lesion: carcinoma + carcinoma, bilateral, dosed 91 weeks, study length 93 weeks): 8.41 mg/kg/day | TD50 (rat, strain Fischer 344, females, in drinking water, site: all sites, lesion: mononuclear-cell leukemia, dosed 91 weeks, study length 93 weeks): 6.71 mg/kg/day | TD50 (rat, strain Fischer 344, females, in drinking water, site: any site (literature study), lesion: several types, types named in the paper, dosed 91 weeks, study length 93 weeks): 1.09 mg/kg/day | TD50 (rat, strain Fischer 344, females, in drinking water, site: cervix uteri + uterus, lesion: carcinoma + papillary adenoma + adenoma, dosed 91 weeks, study length 93 weeks): 14 mg/kg/day | TD50 (rat, strain Fischer 344, females, in drinking water, site: cervix uteri + uterus, lesion: papillary adenoma + adenoma, dosed 91 weeks, study length 93 weeks): 15.8 mg/kg/day | TD50 (rat, strain Fischer 344, females, in drinking water, site: clitoral gland + cervix uteri + colon, descending + liver + mammary gland + palate + pharynx + rectum + skin + tongue + uterus + Zymbal's glan, lesion: adenoma + adenoma, bilateral + carcinoma + carcinoma, bilateral + papillary adenoma + adenocarcinoma + adenomatous polyp + hepatocellu, dosed 91 weeks, study length 93 weeks): 1.19 mg/kg/day | TD50 (rat, strain Fischer 344, females, in drinking water, site: clitoral gland, lesion: adenoma + adenoma, bilateral + carcinoma + carcinoma, bilateral, dosed 91 weeks, study length 93 weeks): 1.6 mg/kg/day | TD50 (rat, strain Fischer 344, females, in drinking water, site: clitoral gland, lesion: adenoma + adenoma, bilateral, dosed 91 weeks, study length 93 weeks): 3.84 mg/kg/day | TD50 (rat, strain Fischer 344, females, in drinking water, site: clitoral gland, lesion: carcinoma + carcinoma, bilateral, dosed 91 weeks, study length 93 weeks): 2.62 mg/kg/day | TD50 (rat, strain Fischer 344, females, in drinking water, site: colon, descending + rectum, lesion: adenocarcinoma + adenomatous polyp, dosed 91 weeks, study length 93 weeks): 44.3 mg/kg/day | TD50 (rat, strain Fischer 344, females, in drinking water, site: liver, lesion: hepatocellular adenoma + hepatocellular carcinoma + neoplastic nodule, dosed 91 weeks, study length 93 weeks): 33.3 mg/kg/day | TD50 (rat, strain Fischer 344, females, in drinking water, site: liver, lesion: hepatocellular carcinoma + neoplastic nodule, dosed 91 weeks, study length 93 weeks): 33.3 mg/kg/day | TD50 (rat, strain Fischer 344, females, in drinking water, site: mammary gland, lesion: adenocarcinoma + adenoma + fibroadenoma, dosed 91 weeks, study length 93 weeks): 3.24 mg/kg/day | TD50 (rat, strain Fischer 344, females, in drinking water, site: mammary gland, lesion: adenocarcinoma, dosed 91 weeks, study length 93 weeks): 7.7 mg/kg/day | TD50 (rat, strain Fischer 344, females, in drinking water, site: mammary gland, lesion: adenoma + fibroadenoma, dosed 91 weeks, study length 93 weeks): 6.22 mg/kg/day | TD50 (rat, strain Fischer 344, females, in drinking water, site: mammary gland, lesion: fibroadenoma, dosed 91 weeks, study length 93 weeks): 7.05 mg/kg/day | TD50 (rat, strain Fischer 344, females, in drinking water, site: palate + pharynx + tongue, lesion: squamous-cell carcinoma + squamous-cell papilloma, dosed 91 weeks, study length 93 weeks): 13.8 mg/kg/day | TD50 (rat, strain Fischer 344, females, in drinking water, site: palate + tongue, lesion: squamous-cell carcinoma, dosed 91 weeks, study length 93 weeks): 113 mg/kg/day | TD50 (rat, strain Fischer 344, females, in drinking water, site: palate + tongue, lesion: squamous-cell papilloma, dosed 91 weeks, study length 93 weeks): 16.6 mg/kg/day | TD50 (rat, strain Fischer 344, females, in drinking water, site: palate, lesion: squamous-cell carcinoma + squamous-cell papilloma, dosed 91 weeks, study length 93 weeks): 45.3 mg/kg/day | TD50 (rat, strain Fischer 344, females, in drinking water, site: palate, lesion: squamous-cell papilloma, dosed 91 weeks, study length 93 weeks): 47.8 mg/kg/day | TD50 (rat, strain Fischer 344, females, in drinking water, site: pituitary gland, lesion: adenoma + pars distalis adenoma + pars distalis carcinoma, dosed 91 weeks, study length 93 weeks): 9.4 mg/kg/day | TD50 (rat, strain Fischer 344, females, in drinking water, site: pituitary gland, lesion: adenoma + pars distalis adenoma, dosed 91 weeks, study length 93 weeks): 8.84 mg/kg/day | TD50 (rat, strain Fischer 344, females, in drinking water, site: skin, lesion: basal-cell adenoma + basal-cell carcinoma, dosed 91 weeks, study length 93 weeks): 10.2 mg/kg/day | TD50 (rat, strain Fischer 344, females, in drinking water, site: skin, lesion: basal-cell adenoma, dosed 91 weeks, study length 93 weeks): 12.3 mg/kg/day | TD50 (rat, strain Fischer 344, females, in drinking water, site: tongue, lesion: squamous-cell carcinoma + squamous-cell papilloma, dosed 91 weeks, study length 93 weeks): 19.9 mg/kg/day | TD50 (rat, strain Fischer 344, females, in drinking water, site: uterus, lesion: endometrial stromal polyp, dosed 91 weeks, study length 93 weeks): 11.6 mg/kg/day | TD50 (rat, strain Fischer 344, males, in drinking water, site: Zymbal's gland, lesion: adenoma + adenoma, bilateral + carcinoma + carcinoma, bilateral, dosed 88 weeks, study length 92 weeks): 3.02 mg/kg/day | TD50 (rat, strain Fischer 344, males, in drinking water, site: Zymbal's gland, lesion: adenoma + adenoma, bilateral, dosed 88 weeks, study length 92 weeks): 5.84 mg/kg/day | TD50 (rat, strain Fischer 344, males, in drinking water, site: Zymbal's gland, lesion: carcinoma + carcinoma, bilateral, dosed 88 weeks, study length 92 weeks): 6.71 mg/kg/day | TD50 (rat, strain Fischer 344, males, in drinking water, site: adrenal medulla, lesion: pheochromocytoma benign, bilateral + pheochromocytoma, benign, dosed 88 weeks, study length 92 weeks): 2.06 mg/kg/day | TD50 (rat, strain Fischer 344, males, in drinking water, site: adrenal medulla, lesion: pheochromocytoma benign, bilateral + pheochromocytoma, malignant + pheochromocytoma, benign, dosed 88 weeks, study length 92 weeks): 2.11 mg/kg/day | TD50 (rat, strain Fischer 344, males, in drinking water, site: all sites + colon, ascending + cecum + colon + colon, descending + duodenum + ileum + jejunum + liver + palate + pharynx + preputial gland + rec, lesion: mesothelioma, benign + mesothelioma, malignant + adenomatous polyp + mucinous cystadenocarcinoma + adenocarcinoma + hepatocellular, dosed 88 weeks, study length 92 weeks): 0.677 mg/kg/day | TD50 (rat, strain Fischer 344, males, in drinking water, site: all sites, lesion: mesothelioma, benign + mesothelioma, malignant, dosed 88 weeks, study length 92 weeks): 27.4 mg/kg/day | TD50 (rat, strain Fischer 344, males, in drinking water, site: all sites, lesion: mononuclear-cell leukemia, dosed 88 weeks, study length 92 weeks): 2.5 mg/kg/day | TD50 (rat, strain Fischer 344, males, in drinking water, site: any site (literature study), lesion: several types, types named in the paper, dosed 88 weeks, study length 92 weeks): 0.565 mg/kg/day | TD50 (rat, strain Fischer 344, males, in drinking water, site: brain + cerebellum, cerebrum + cerebrum + cerebellum, lesion: astrocytoma, malignant, dosed 88 weeks, study length 92 weeks): 10.9 mg/kg/day | TD50 (rat, strain Fischer 344, males, in drinking water, site: cecum + colon + colon, descending + rectum, lesion: mucinous cystadenocarcinoma + adenocarcinoma, dosed 88 weeks, study length 92 weeks): 38 mg/kg/day | TD50 (rat, strain Fischer 344, males, in drinking water, site: colon, ascending + cecum + colon + colon, descending + rectum, lesion: adenomatous polyp + mucinous cystadenocarcinoma + adenocarcinoma, dosed 88 weeks, study length 92 weeks): 9.91 mg/kg/day | TD50 (rat, strain Fischer 344, males, in drinking water, site: colon, ascending + colon, descending + rectum, lesion: adenomatous polyp, dosed 88 weeks, study length 92 weeks): 13.6 mg/kg/day | TD50 (rat, strain Fischer 344, males, in drinking water, site: duodenum + ileum + jejunum, lesion: adenocarcinoma + mucinous cystadenocarcinoma, dosed 88 weeks, study length 92 weeks): 8.44 mg/kg/day | TD50 (rat, strain Fischer 344, males, in drinking water, site: liver, lesion: hepatocellular adenoma + hepatocellular carcinoma + neoplastic nodule, dosed 88 weeks, study length 92 weeks): 7.8 mg/kg/day | TD50 (rat, strain Fischer 344, males, in drinking water, site: liver, lesion: hepatocellular carcinoma + neoplastic nodule, dosed 88 weeks, study length 92 weeks): 7.8 mg/kg/day | TD50 (rat, strain Fischer 344, males, in drinking water, site: liver, lesion: neoplastic nodule, dosed 88 weeks, study length 92 weeks): 12.4 mg/kg/day | TD50 (rat, strain Fischer 344, males, in drinking water, site: palate + pharynx + tongue, lesion: squamous-cell carcinoma + squamous-cell papilloma, dosed 88 weeks, study length 92 weeks): 4.22 mg/kg/day | TD50 (rat, strain Fischer 344, males, in drinking water, site: palate, lesion: squamous-cell carcinoma + squamous-cell papilloma, dosed 88 weeks, study length 92 weeks): 8.21 mg/kg/day | TD50 (rat, strain Fischer 344, males, in drinking water, site: palate, lesion: squamous-cell papilloma, dosed 88 weeks, study length 92 weeks): 8.35 mg/kg/day | TD50 (rat, strain Fischer 344, males, in drinking water, site: pharynx + tongue, lesion: squamous-cell papilloma, dosed 88 weeks, study length 92 weeks): 4.49 mg/kg/day | TD50 (rat, strain Fischer 344, males, in drinking water, site: preputial gland, lesion: adenoma + adenoma, bilateral + carcinoma + carcinoma, bilateral, dosed 88 weeks, study length 92 weeks): 1.78 mg/kg/day | TD50 (rat, strain Fischer 344, males, in drinking water, site: preputial gland, lesion: adenoma + adenoma, bilateral, dosed 88 weeks, study length 92 weeks): 3.28 mg/kg/day | TD50 (rat, strain Fischer 344, males, in drinking water, site: preputial gland, lesion: carcinoma + carcinoma, bilateral, dosed 88 weeks, study length 92 weeks): 4.65 mg/kg/day | TD50 (rat, strain Fischer 344, males, in drinking water, site: skin, lesion: basal-cell adenoma + basal-cell carcinoma + sebaceous gland carcinoma + sebaceous adenoma, dosed 88 weeks, study length 92 weeks): 0.767 mg/kg/day | TD50 (rat, strain Fischer 344, males, in drinking water, site: skin, lesion: basal-cell adenoma + basal-cell carcinoma, dosed 88 weeks, study length 92 weeks): 0.77 mg/kg/day | TD50 (rat, strain Fischer 344, males, in drinking water, site: skin, lesion: basal-cell adenoma + sebaceous adenoma, dosed 88 weeks, study length 92 weeks): 0.785 mg/kg/day | TD50 (rat, strain Fischer 344, males, in drinking water, site: skin, lesion: basal-cell adenoma, dosed 88 weeks, study length 92 weeks): 0.789 mg/kg/day | TD50 (rat, strain Fischer 344, males, in drinking water, site: skin, lesion: basal-cell carcinoma + sebaceous gland carcinoma, dosed 88 weeks, study length 92 weeks): 6.5 mg/kg/day | TD50 (rat, strain Fischer 344, males, in drinking water, site: skin, lesion: basal-cell carcinoma, dosed 88 weeks, study length 92 weeks): 6.55 mg/kg/day | TD50 (rat, strain Fischer 344, males, in drinking water, site: skin, lesion: keratoacanthoma, dosed 88 weeks, study length 92 weeks): 9.13 mg/kg/day | TD50 (rat, strain Fischer 344, males, in drinking water, site: skin, lesion: sebaceous gland carcinoma + sebaceous adenoma, dosed 88 weeks, study length 92 weeks): 24.6 mg/kg/day | TD50 (rat, strain Fischer 344, males, in drinking water, site: skin, lesion: squamous-cell carcinoma + squamous-cell papilloma, dosed 88 weeks, study length 92 weeks): 2.01 mg/kg/day | TD50 (rat, strain Fischer 344, males, in drinking water, site: skin, lesion: squamous-cell carcinoma, dosed 88 weeks, study length 92 weeks): 2.35 mg/kg/day | TD50 (rat, strain Fischer 344, males, in drinking water, site: skin, lesion: squamous-cell papilloma, dosed 88 weeks, study length 92 weeks): 6.6 mg/kg/day | TD50 (rat, strain Fischer 344, males, in drinking water, site: subcutaneous tissue, lesion: fibroma + neurofibroma, dosed 88 weeks, study length 92 weeks): 5.19 mg/kg/day | TD50 (rat, strain Fischer 344, males, in drinking water, site: subcutaneous tissue, lesion: fibroma, dosed 88 weeks, study length 92 weeks): 13.9 mg/kg/day | TD50 (rat, strain Fischer 344, males, in drinking water, site: subcutaneous tissue, lesion: fibrosarcoma + fibroma + neurofibroma + sarcoma, dosed 88 weeks, study length 92 weeks): 6.49 mg/kg/day | TD50 (rat, strain Fischer 344, males, in drinking water, site: subcutaneous tissue, lesion: fibrosarcoma + fibroma, dosed 88 weeks, study length 92 weeks): 13.6 mg/kg/day | TD50 (rat, strain Fischer 344, males, in drinking water, site: testis, lesion: interstitial-cell adenoma, bilateral + interstitial-cell adenoma, dosed 88 weeks, study length 92 weeks): 0.612 mg/kg/day | TD50 (rat, strain Fischer 344, males, in drinking water, site: thyroid gland, lesion: c-cell adenoma + c-cell carcinoma, dosed 88 weeks, study length 92 weeks): 4.7 mg/kg/day | TD50 (rat, strain Fischer 344, males, in drinking water, site: thyroid gland, lesion: c-cell adenoma, dosed 88 weeks, study length 92 weeks): 6.92 mg/kg/day | TD50 (rat, strain Fischer 344, males, in drinking water, site: tongue, lesion: squamous-cell carcinoma + squamous-cell papilloma, dosed 88 weeks, study length 92 weeks): 8.25 mg/kg/day | TD50 (rat, strain Fischer 344, males, in drinking water, site: tongue, lesion: squamous-cell papilloma, dosed 88 weeks, study length 92 weeks): 9.16 mg/kg/day
